The IC50 is the midpoint of a concentration-inhibition curve.

Structures are written as SMILES.

T1 sequence (P08581 969-1390): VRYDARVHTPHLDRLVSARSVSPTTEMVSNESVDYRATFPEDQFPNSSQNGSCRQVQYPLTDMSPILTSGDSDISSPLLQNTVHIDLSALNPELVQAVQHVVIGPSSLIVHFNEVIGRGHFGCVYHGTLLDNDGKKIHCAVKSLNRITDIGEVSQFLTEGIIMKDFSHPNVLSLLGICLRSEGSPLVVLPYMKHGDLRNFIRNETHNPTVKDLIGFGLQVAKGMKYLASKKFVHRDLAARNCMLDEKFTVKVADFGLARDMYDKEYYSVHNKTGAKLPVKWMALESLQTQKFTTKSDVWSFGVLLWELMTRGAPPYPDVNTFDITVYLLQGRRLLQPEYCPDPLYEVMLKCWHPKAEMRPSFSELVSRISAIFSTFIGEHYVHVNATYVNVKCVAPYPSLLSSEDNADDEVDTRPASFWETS

The experiment concerns the target T1, cMET receptor tyrosine kinase (GST-cMET (969-1390)) (Homo sapiens, UniProt P08581).
T1 construct: made in house
The experiment in a line: EPK cMET profiling assay (LanthaScreen TR-FRET antibody based kinase phosphorylation assay). Conditions: purified recombinant GST-cMET (969-1390), 2 μM ATP, 50 nM Fluorescein-PolyEAY, 60 minutes at room temperature; read-out: c-Met IC50. Type of experiment: biochemical. In outline:
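GST-cMET cytoplasmic domain (969-1390), 0.3 nM, phosphorylated 50 nM fluorescein-PolyEAY with 2 µM ATP, Mg2+/Mn2+, 0.6% DMSO, 60 min at room temperature. Stopped with EDTA; Tb-PY20 antibody TR-FRET single end-point read. Final compound concentrations 10 to 0.003 µM, 8 points.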
In general terms: In TR-FRET formats the signal depends on donor and acceptor labels being close together.
`OCCN1CCC(n2cc(-c3ccc4ncc(Cc5cc6cccnc6cc5F)n4n3)cn2)CC1` [Example 147, 2-(4-{4-[3-(7-Fluoro-quinolin-6-ylmethyl)-imidazo[1,2-b]pyridazin-6-yl]-pyrazol-1-yl}-piperidin-1-yl)-ethanol]: the IC50 turned out to be 82 nM.
To `c1cnc2ccc(Cc3cnc4ccc(-c5ccc6nonc6c5)nn34)cc2c1` [Example 52, 6-(6-Benzo[1,2,5]oxadiazol-5-yl-imidazo[1,2-b]pyridazin-3-ylmethyl)-quinoline] belongs 240 nM.
On to `FC(F)(F)CNc1ccc2ncc(Cc3ccc4ncccc4c3)n2n1` [Example 114, (3-Quinolin-6-ylmethyl-imidazo[1,2-b]pyridazin-6-yl)-(2,2,2-trifluoro-ethyl)-amine], for which the IC50 was 56 nM.
`O=C1CCN(c2ccc3ncc(Cc4ccc5ncccc5c4)n3n2)CC1` [Example 120, 1-(3-Quinolin-6-ylmethyl-imidazo[1,2-b]pyridazin-6-yl)-piperidin-4-one]: the IC50 was found to be 69 nM.
Regarding `CCOc1ccc2ncc(Cc3ccc4ncccc4c3)n2n1` [Example 123, 6-(6-ethoxy-imidazo[1,2-b]pyridazin-3-ylmethyl)-quinoline], the half-maximal inhibitory concentration (IC50) stood at 87 nM.
With `N#Cc1cccc(-c2ccc3ncc(Cc4ccc5ncccc5c4)n3n2)c1` [Example 26, 3-(3-Quinolin-6-ylmethyl-imidazo[1,2-b]pyridazin-6-yl)-benzonitrile], the IC50 was found to be 20 nM.
On to `C=Cc1cnc2ccc(Cc3cnc4ccc(-c5cnn(C)c5)nn34)cn12` [Example 299, 6-(1-Methyl-1H-pyrazol-4-yl)-3-(3-vinyl-imidazo[1,2-a]pyridin-6-ylmethyl)-imidazo[1,2-b]pyridazine], for which the IC50 amounted to 270 nM.
In the case of `CN1CCC(n2cc(-c3ccc4ncc(Cc5ccc6ncccc6c5)n4n3)cn2)CC1` [Example 238, 6-{6-[1-(1-Methyl-piperidin-4-yl)-1H-pyrazol-4-yl]-imidazo[1,2-b]pyridazin-3-ylmethyl}-quinoline], the 50% inhibitory concentration (IC50) was determined as 230 nM.
Consider `CC(c1ccc2nccn2c1)c1cnc2ccc(Cl)nn12` (racemic) [Example 292, (rac)-6-Chloro-3-(1-imidazo[1,2-a]pyridin-6-yl-ethyl)-imidazo[1,2-b]pyridazine], for which the IC50 amounted to 80 nM.
In the case of `CNC(=O)c1ccc(-c2ccc3ncc(Cc4ccc5ncccc5c4)n3n2)cc1F` [Example 70, 2-Fluoro-N-methyl-4-(3-quinolin-6-ylmethyl-imidazo[1,2-b]pyridazin-6-yl)-benzamide], the concentration for half-maximal inhibition (IC50) stood at 62 nM.
The figure for `Fc1cc2ncccc2cc1Cc1cnc2ccc(-c3cnn(CCN4CCOCC4)c3)nn12` [Example 232, 7-Fluoro-6-{6-[1-(2-morpholin-4-yl-ethyl)-1H-pyrazol-4-yl]-imidazo[1,2-b]pyridazin-3-ylmethyl}-quinoline] is 66 nM; for `CCn1nccc1Nc1ccc2ncc(Cc3ccc4ncccc4c3)n2n1` [Example 132, (2-Ethyl-2H-pyrazol-3-yl)-(3-quinolin-6-ylmethyl-imidazo[1,2-b]pyridazin-6-yl)-amine] it is 50 nM.
Take `Fc1ccc(Nc2ccc3ncc(Cc4ccc5ncccc5c4)n3n2)cc1Cl` [Example 137, (3-Chloro-4-fluoro-phenyl)-(3-quinolin-6-ylmethyl-imidazo[1,2-b]pyridazin-6-yl)-amine]: the IC50 is 100 nM.
As to `O[C@H]1CCN(c2ccc3ncc(Cc4ccc5ncccc5c4)n3n2)C1` [Example 107, (S)-1-(3-Quinolin-6-ylmethyl-imidazo[1,2-b]pyridazin-6-yl)-pyrrolidin-3-ol], the 50% inhibitory concentration (IC50) was 20 nM.
To `COCCNc1ccc2ncc(Cc3ccc4ncccc4c3)n2n1` [Example 89, (2-Methoxy-ethyl)-(3-quinolin-6-ylmethyl-imidazo[1,2-b]pyridazin-6-yl)-amine] belongs 26 nM.
To `COc1ccc2cc(-c3ccc4ncc(Cc5ccc6ncccc6c5)n4n3)ccc2c1` [Example 40, 6-[6-(6-Methoxy-naphthalen-2-yl)-imidazo[1,2-b]pyridazin-3-ylmethyl]-quinoline] belongs 130 nM; to `Cn1cc(-c2ccc3ncc(Cc4cn5ccnc5cc4F)n3n2)cn1` [Example 205, 3-(7-Fluoro-imidazo[1,2-a]pyridin-6-ylmethyl)-6-(1-methyl-1H-pyrazol-4-yl)-imidazo[1,2-b]pyridazine], 47 nM.
For `CC(c1ccc2ncn(C)c2c1)c1cnc2ccc(-c3cnn(C)c3)nn12` (racemic) [Example 206, (rac)-3-[1-(3-Methyl-3H-benzoimidazol-5-yl)-ethyl]-6-(1-methyl-1H-pyrazol-4-yl)-imidazo[1,2-b]pyridazine], the half-maximal inhibitory concentration (IC50) was 31 nM.
Consider `Cn1cc(-c2ccc3ncc(Cc4ccc5ncc(Br)n5c4)n3n2)cn1` [Example 296, 3-(3-Bromo-imidazo[1,2-a]pyridin-6-ylmethyl)-6-(1-methyl-1H-pyrazol-4-yl)-imidazo[1,2-b]pyridazine], for which the half-maximal inhibitory concentration (IC50) came to 57 nM.
With `c1cn2cc(Cc3cnc4ccc(-c5cnn(C6CCNCC6)c5)nn34)ccc2n1` [Example 291, 3-Imidazo[1,2-a]pyridin-6-ylmethyl-6-(1-piperidin-4-yl-1H-pyrazol-4-yl)-imidazo[1,2-b]pyridazine], the IC50 is 590 nM.
As for `CNC(=O)c1ccc(-c2ccc3ncc(Cc4ccc5ncccc5c4)n3n2)cc1Cl` [Example 71, 2-Chloro-N-methyl-4-(3-quinolin-6-ylmethyl-imidazo[1,2-b]pyridazin-6-yl)-benzamide], the IC50 was found to be 24 nM.
With `CC(c1cc2cccnc2cc1F)c1cnc2ccc(-c3cnn(C)c3)nn12` (racemic) [Example 253, (rac)-7-Fluoro-6-{1-[6-(1-methyl-1H-pyrazol-4-yl)-imidazo[1,2-b]pyridazin-3-yl]-ethyl}-quinoline], the IC50 worked out at 13 nM.
As to `c1cnc2ccc(Cc3cnc4ccc(-c5ccc6[nH]ccc6c5)nn34)cc2c1` [Example 45, 6-[6-(1H-Indol-5-yl)-imidazo[1,2-b]pyridazin-3-ylmethyl]-quinoline], the IC50 amounted to 100 nM.
On to `c1ccc(CNc2ccc3ncc(Cc4ccc5ncccc5c4)n3n2)cc1` [Example 82, Benzyl-(3-quinolin-6-ylmethyl-imidazo[1,2-b]pyridazin-6-yl)-amine], for which the IC50 came out at 220 nM.
In the case of `Cn1ncc2c(F)c(Cc3cnc4ccc(-c5cnn(CCO)c5)nn34)c(F)cc21` [Example 285, 2-{4-[3-(4,6-Difluoro-1-methyl-1H-indazol-5-ylmethyl)-imidazo[1,2-b]pyridazin-6-yl]-pyrazol-1-yl}-ethanol], the IC50 is 11 nM.
The figure for `CC1CCCCN1c1ccc2ncc(Cc3ccc4ncccc4c3)n2n1` (centres unmarked) [Example 111, 6-[6-(2-Methyl-piperidin-1-yl)-imidazo[1,2-b]pyridazin-3-ylmethyl]-quinoline] is 340 nM.
As for `F[C@@H]1CCN(c2ccc3ncc(Cc4ccc5ncccc5c4)n3n2)C1` [Example 124, 6-[6-((R)-3-fluoro-pyrrolidin-1-yl)-imidazo[1,2-b]pyridazin-3-ylmethyl]-quinoline], the IC50 is 180 nM.
As for `c1cnc2ccc(Cc3cnc4ccc(NCC5CCCO5)nn34)cc2c1` (centres unmarked) [Example 80, (3-Quinolin-6-ylmethyl-imidazo[1,2-b]pyridazin-6-yl)-(tetrahydro-furan-2-ylmethyl)-amine], the half-maximal inhibitory concentration (IC50) turned out to be 38 nM.
The figure for `Clc1cc(-c2ccc3ncc(Cc4ccc5ncccc5c4)n3n2)ccn1` [Example 49, 6-[6-(2-Chloro-pyridin-4-yl)-imidazo[1,2-b]pyridazin-3-ylmethyl]-quinoline] is 23 nM; for `Cn1cc(-c2ccc3ncc([C@](C)(O)c4cc5cccnc5cc4F)n3n2)cn1` [Example 175, (R)-1-(7-Fluoro-quinolin-6-yl)-1-[6-(1-methyl-1H-pyrazol-4-yl)-imidazo[1,2-b]pyridazin-3-yl]-ethanol] it is 38 nM; for `Oc1ccc(-c2ccc3ncc(Cc4ccc5ncccc5c4)n3n2)cn1` [Example 73, 5-(3-Quinolin-6-ylmethyl-imidazo[1,2-b]pyridazin-6-yl)-pyridin-2-ol] it is 48 nM.
`C[C@@H](c1ccc2ncccc2c1)c1cnc2ccc(-c3cnn(C4CCN(C)CC4)c3)nn12` [Example 239, 6-((S)-1-{6-[1-(1-Methyl-piperidin-4-yl)-1H-pyrazol-4-yl]-imidazo[1,2-b]pyridazin-3-yl}-ethyl)quinoline]: the IC50 was determined as 31 nM.
Take `CC(c1cc2cnn(C)c2cc1F)c1cnc2ccc(-c3cnn(CCO)c3)nn12` (racemic) [Example 279, (rac)-2-(4-{3-[1-(6-Fluoro-1-methyl-1H-indazol-5-yl)-ethyl]-imidazo[1,2-b]pyridazin-6-yl}-pyrazol-1-yl)-ethanol]: the IC50 was determined as 15 nM.
On to `[2H]C([2H])(c1ccc2ncccc2c1)c1cnc2ccc(-c3cnn(C)c3)nn12` [Example 143, 6{Dideutero-[6-(1-methyl-1H-pyrazol-4-yl)-imidazo[1,2-b]pyridazin-3-ylmethyl]}-quinoline], for which the half-inhibitory concentration (IC50) was 44 nM.
Take `Clc1ccc(-c2ccc3ncc(Cc4ccc5ncccc5c4)n3n2)cc1` [Example 27, 6-[6-(4-Chloro-phenyl)-imidazo[1,2-b]pyridazin-3-ylmethyl]-quinoline]: the 50% inhibitory concentration (IC50) was determined as 110 nM.
Regarding `c1ccc(Nc2ccc3ncc(Cc4ccc5ncccc5c4)n3n2)cc1` [Example 122, Phenyl-(3-quinolin-6-ylmethyl-imidazo[1,2-b]pyridazin-6-yl)-amine], the 50% inhibitory concentration (IC50) amounted to 73 nM.
To `Clc1cccc(-c2ccc3ncc(Cc4ccc5ncccc5c4)n3n2)c1` [Example 53, 6-[6-(3-Chloro-phenyl)-imidazo[1,2-b]pyridazin-3-ylmethyl]-quinoline] belongs 110 nM; to `Fc1ccc(-c2ccc3ncc(Cc4ccc5ncccc5c4)n3n2)cc1Cl` [Example 68, 6-[6-(3-Chloro-4-fluoro-phenyl)-imidazo[1,2-b]pyridazin-3-ylmethyl]-quinoline], 480 nM.

(Values after patent publication US8822468B2 (Novartis AG, priority 2008, dated 2014).)
